Columns and labels:
Assay in all cases: relative viability (nuclei count vs DMSO), 5 days (fraction); higher = more cells survive
Doxorubicin + Foretinib = compound: COc1cccc2c1C(=O)c1c(O)c3c(c(O)c1C2=O)C[C@@](O)(C(=O)CO)C[C@@H]3O[C@H]1C[C@H](N)[C@H](O)[C@H](C)O1 [Doxorubicin] + COc1cc2c(Oc3ccc(NC(=O)C4(C(=O)Nc5ccc(F)cc5)CC4)cc3F)ccnc2cc1OCCCN1CCOCC1 [Foretinib] (partner 0.25 µM)
In short: (§1)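 Relative viability divides the nuclei count in treated wells by that in vehicle wells. Lung cancer cell lines were seeded in 1536-well plates, dosed by pin tool the next day, and fixed and stained after 5 days in one step with final 0.05% Triton X-100, 1% formaldehyde and 1 ug/ml Hoechst. Dosing was a single drug or a fixed anchor-drug dose plus five library-drug doses (not always all listed) in √10 steps, and values are medians of duplicate plates imaged at 4×.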

Doxorubicin + Pictilisib = compound: COc1cccc2c1C(=O)c1c(O)c3c(c(O)c1C2=O)C[C@@](O)(C(=O)CO)C[C@@H]3O[C@H]1C[C@H](N)[C@H](O)[C@H](C)O1 [Doxorubicin] + CS(=O)(=O)N1CCN(Cc2cc3nc(-c4cccc5[nH]ncc45)nc(N4CCOCC4)c3s2)CC1 [Pictilisib] (partner 1 µM)
In short: as §1

BAY61-3606 + Dasatinib = compound: COC1=C(C=C(C=C1)C2=CC3=NC=CN3C(=N2)NC4=C(C=CC=N4)C(=O)N)OC [BAY61-3606] + Cc1nc(Nc2ncc(C(=O)Nc3c(C)cccc3Cl)s2)cc(N2CCN(CCO)CC2)n1 [Dasatinib] (partner 0.075 µM)
In short: as §1

Doxorubicin + Trametinib = compound: COc1cccc2c1C(=O)c1c(O)c3c(c(O)c1C2=O)C[C@@](O)(C(=O)CO)C[C@@H]3O[C@H]1C[C@H](N)[C@H](O)[C@H](C)O1 [Doxorubicin] + CC(=O)Nc1cccc(-n2c(=O)n(C3CC3)c(=O)c3c(Nc4ccc(I)cc4F)n(C)c(=O)c(C)c32)c1 [Trametinib] (partner 0.02 µM)
In short: as §1

Cell Line | relative viability (Doxorubicin + Foretinib; first compound 0.001 µM) | relative viability (Doxorubicin + Foretinib; first compound 0.003162 µM) | relative viability (Doxorubicin + Foretinib; first compound 0.01 µM) | relative viability (Doxorubicin + Foretinib; first compound 0.03162 µM) | relative viability (Doxorubicin + Foretinib; first compound 0.1 µM) | relative viability (Doxorubicin + Pictilisib; first compound 0.001 µM) | relative viability (Doxorubicin + Pictilisib; first compound 0.003162 µM) | relative viability (Doxorubicin + Pictilisib; first compound 0.01 µM) | relative viability (Doxorubicin + Pictilisib; first compound 0.03162 µM) | relative viability (Doxorubicin + Pictilisib; first compound 0.1 µM) | relative viability (BAY61-3606 + Dasatinib; first compound 0.02 µM) | relative viability (BAY61-3606 + Dasatinib; first compound 0.06325 µM) | relative viability (BAY61-3606 + Dasatinib; first compound 0.2 µM) | relative viability (BAY61-3606 + Dasatinib; first compound 0.6325 µM) | relative viability (BAY61-3606 + Dasatinib; first compound 2 µM) | relative viability (Doxorubicin + Trametinib; first compound 0.001 µM) | relative viability (Doxorubicin + Trametinib; first compound 0.003162 µM) | relative viability (Doxorubicin + Trametinib; first compound 0.01 µM) | relative viability (Doxorubicin + Trametinib; first compound 0.03162 µM) | relative viability (Doxorubicin + Trametinib; first compound 0.1 µM)
LCLC-97TM1 | 0.977 | 0.861 | 0.895 | 0.882 | 0.891 | 0.145 | 0.24 | 0.225 | 0.158 | 0.187 | 0.722 | 0.98 | 1.03 | 0.804 | 0.864 | 0.193 | 0.219 | 0.15 | 0.199 | 0.209
HCC-366 | – | 0.963 | 0.967 | 1.01 | 0.94 | 0.155 | 0.182 | 0.119 | 0.162 | 0.162 | 0.56 | 0.548 | 0.626 | 0.597 | 0.439 | 0.334 | 0.363 | 0.353 | 0.227 | 0.325
BEN | 0.978 | 0.678 | 0.612 | 0.49 | 0.582 | 0.7 | 0.509 | 0.546 | 0.472 | 0.493 | 0.342 | 0.309 | 0.296 | 0.318 | 0.321 | 1.02 | 0.854 | 0.897 | 0.723 | 0.968
LCLC-103H | 0.767 | 0.82 | 0.786 | 0.66 | 0.758 | 0.618 | 0.677 | 0.569 | 0.588 | 0.578 | 0.537 | 0.407 | 0.465 | 0.55 | 0.446 | 0.704 | 0.725 | 0.697 | 0.65 | 0.623
NCI-H441 | – | 1.04 | 0.897 | 0.48 | 0.368 | 0.434 | 0.521 | 0.404 | 0.292 | 0.323 | 0.614 | 0.655 | 0.54 | 0.521 | 0.438 | 0.426 | 0.471 | 0.45 | 0.205 | 0.188
ChaGo-K-1 | 1.03 | 0.946 | 0.835 | 0.937 | 0.826 | 0.971 | 0.506 | 0.621 | 0.369 | 0.238 | 0.566 | 0.547 | 0.591 | 0.548 | 0.596 | 0.984 | 0.858 | 0.661 | 0.926 | 0.86
COR-L 105 | 1.02 | 0.943 | 0.9 | 0.62 | 0.7 | 0.463 | 0.444 | 0.355 | 0.283 | 0.277 | 0.325 | 0.332 | 0.339 | 0.333 | 0.203 | 0.452 | 0.483 | 0.423 | 0.423 | 0.377
NCI-H1993 | 0.876 | 0.851 | 0.769 | 0.673 | 0.839 | 0.78 | 0.817 | 0.748 | 0.814 | 0.656 | 0.581 | 0.56 | 0.566 | 0.521 | 0.491 | 0.667 | – | 0.501 | 0.473 | 0.513
NCI-H2009 | 1.13 | 1.18 | 1.15 | 0.947 | 0.946 | 0.712 | 0.777 | 0.719 | 0.535 | 0.282 | 0.318 | 0.288 | 0.281 | 0.233 | 0.142 | 0.294 | 0.287 | 0.268 | 0.171 | 0.153
NCI-H23 | – | 0.863 | 1.03 | 0.855 | 0.981 | – | 0.475 | 0.462 | 0.375 | 0.401 | 0.801 | 0.713 | 0.645 | 0.606 | 0.677 | 0.326 | 0.45 | 0.344 | 0.334 | 0.45
NCI-H2405 | 1.02 | 1.1 | 1.02 | 1.09 | 1 | – | 0.432 | 0.507 | 0.356 | 0.276 | 0.203 | 0.205 | 0.201 | 0.181 | 0.185 | 0.595 | 0.548 | 0.601 | 0.446 | 0.584
EMC-BAC-2 | 1.15 | 1.06 | 0.861 | 0.595 | 0.582 | 0.685 | 0.528 | 0.538 | 0.477 | 0.338 | 0.359 | 0.323 | 0.353 | 0.298 | 0.276 | 0.807 | 0.633 | 0.576 | 0.297 | 0.36
NCI-H322M | 0.92 | 0.898 | 0.905 | 0.717 | 0.562 | 0.589 | 0.448 | 0.546 | 0.561 | 0.564 | 0.247 | 0.232 | 0.256 | 0.233 | 0.224 | 0.478 | 0.565 | 0.52 | 0.542 | 0.498
SK-MES-1 | 1 | 0.843 | 0.923 | 0.818 | 0.766 | 0.368 | 0.395 | 0.362 | 0.342 | 0.204 | 0.379 | 0.302 | 0.357 | 0.339 | 0.23 | 0.563 | 0.572 | 0.513 | 0.283 | 0.192
NCI-H2170 | 0.994 | 1.07 | 0.998 | 0.96 | 0.97 | 0.234 | 0.302 | 0.352 | 0.316 | 0.38 | 0.64 | 0.508 | 0.539 | 0.465 | 0.352 | 0.98 | 0.953 | 0.887 | 0.756 | 0.959
EPLC-272H | 0.899 | 0.67 | 0.753 | 0.517 | 0.78 | 0.308 | 0.288 | 0.354 | 0.33 | 0.336 | 0.386 | 0.385 | 0.315 | 0.41 | 0.275 | 0.278 | 0.288 | 0.28 | 0.289 | 0.295
NCI-H1975 | 0.998 | 1 | 0.879 | 0.855 | 0.444 | 0.292 | 0.3 | 0.237 | 0.177 | 0.198 | 0.378 | 0.31 | 0.367 | 0.282 | 0.253 | 0.256 | 0.332 | 0.376 | 0.234 | 0.248
NCI-H727 | 0.894 | 1.22 | 1.03 | 0.725 | 1.05 | 0.334 | 0.342 | 0.353 | 0.391 | 0.356 | 0.364 | 0.438 | 0.339 | 0.333 | 0.386 | 0.401 | 0.382 | – | 0.397 | 0.382
NCI-H520 | 0.831 | 0.729 | 0.619 | 0.673 | 0.548 | 0.264 | 0.326 | 0.228 | 0.239 | 0.191 | 0.191 | 0.193 | 0.216 | 0.184 | 0.151 | 0.706 | 0.739 | 0.616 | 0.575 | 0.536
NCI-H1355 | 0.97 | 1.01 | 0.884 | 0.91 | 0.897 | 0.179 | 0.565 | 0.465 | 0.412 | 0.44 | 0.68 | 0.627 | 0.65 | 0.662 | 0.67 | 0.457 | 0.45 | 0.472 | 0.43 | 0.462
NCI-H2347 | 0.845 | 0.847 | 0.708 | 1.02 | 0.714 | 0.563 | 0.598 | 0.803 | 0.615 | 0.635 | 0.328 | 0.3 | 0.283 | 0.332 | 0.319 | 0.197 | 0.297 | 0.284 | 0.281 | 0.283
LC-2-ad | 0.862 | 0.778 | 0.714 | 0.392 | 0.321 | 0.496 | 0.406 | 0.417 | 0.359 | 0.227 | 0.569 | 0.496 | 0.753 | 0.622 | 0.27 | 0.949 | 0.888 | 0.924 | 0.924 | 0.895
NCI-H838 | 1.1 | 1.07 | 1.06 | 0.85 | 0.438 | 0.394 | 0.424 | 0.387 | 0.227 | 0.182 | 0.284 | 0.299 | 0.291 | 0.251 | 0.237 | 0.515 | 0.612 | 0.536 | 0.294 | 0.239
NCI-H1793 | – | 0.881 | 0.63 | 0.531 | 0.594 | – | 0.365 | 0.417 | 0.309 | 0.301 | 0.365 | 0.357 | – | 0.32 | 0.427 | – | 0.4 | 0.373 | 0.4 | 0.4
NCI-H358 | 0.743 | 0.737 | 0.341 | 0.151 | 0.122 | 0.441 | 0.349 | 0.273 | 0.175 | 0.181 | 0.17 | 0.158 | 0.149 | 0.179 | 0.138 | 0.164 | 0.138 | 0.138 | 0.089 | 0.0919
NCI-H2087 | – | 1.1 | 1.03 | 0.851 | 0.693 | 0.703 | 0.886 | 0.841 | 0.495 | 0.454 | 1.01 | 0.858 | 0.906 | 0.79 | 0.635 | 0.17 | 0.201 | 0.158 | 0.172 | 0.166
NCI-H596 | 0.981 | 1.04 | 0.976 | 0.619 | 0.964 | 0.353 | 0.436 | 0.41 | 0.44 | 0.379 | 0.644 | 0.481 | 0.618 | 0.594 | 0.489 | 0.733 | 0.896 | 0.661 | 0.659 | 0.671
